In patent US20100280035A1, “SOLID PHARMACEUTICAL COMPOSITION COMPRISING 1-(4-CHLOROANILINO)-4-(4-PYRIDYLMETHYL)PHTHALAZINE AND A PH MODIFIER” (priority 2005, published 2010):

Test: Permeability of the Agent in the small intestine

permeability: good
SMILES: Clc1ccc(Nc2nnc(Cc3ccncc3)c3ccccc23)cc1.O=C(O)CCC(=O)O [Agent, 1-(4-chloroanilino)-4-(4-pyridylmethyl)phthalazine succinate]
